Results from article PMC4252262 (Chemico-biological interactions, 2014).
Several values for one entry are separate records, joined by “and”; a condition that tells them apart may be missing. Identical values can stand only once. Like-named read-outs stand apart in the source and are kept apart here. Each block holds one molecule with its values, some of them ahead of it.

Key:
Assay type in all cases: biochemical
[1] = target: T1, human cytochrome P450_2A6 (Homo sapiens, UniProt P11509); experiment: Inhibition of P450 2A6
T1 sequence (P11509 1-494): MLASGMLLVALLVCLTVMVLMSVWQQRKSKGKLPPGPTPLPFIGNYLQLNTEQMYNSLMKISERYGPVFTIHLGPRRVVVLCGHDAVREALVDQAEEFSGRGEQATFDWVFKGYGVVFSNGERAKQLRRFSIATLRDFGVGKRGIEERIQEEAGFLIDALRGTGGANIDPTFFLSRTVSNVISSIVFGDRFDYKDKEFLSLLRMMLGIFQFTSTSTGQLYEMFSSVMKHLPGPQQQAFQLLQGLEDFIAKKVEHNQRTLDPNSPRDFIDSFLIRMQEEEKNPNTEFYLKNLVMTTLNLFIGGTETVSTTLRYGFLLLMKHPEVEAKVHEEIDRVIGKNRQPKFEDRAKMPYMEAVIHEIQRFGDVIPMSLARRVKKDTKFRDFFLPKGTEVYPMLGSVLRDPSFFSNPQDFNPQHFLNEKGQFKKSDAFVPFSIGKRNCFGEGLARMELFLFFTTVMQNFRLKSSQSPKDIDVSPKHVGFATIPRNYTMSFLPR

[2] = target: expressed cytochrome P450_2E1 in supersomes (Homo sapiens, UniProt P05181); experiment: Aldehyde oxidation to carboxylic acid by expressed human P450 2E1 supersomes; settings: for NADPH-dependent oxidation of aldehyde by expressed 2E1: 100-120 μM aldehyde, 1.0 mM NADPH, 45 min, 37 °C; for effect on the rate of acid formation from trans-2-octenal: 1.0 mM added, 2E1 supersomes
expressed cytochrome P450_2E1 in supersomes, sequence (P05181 whole entry): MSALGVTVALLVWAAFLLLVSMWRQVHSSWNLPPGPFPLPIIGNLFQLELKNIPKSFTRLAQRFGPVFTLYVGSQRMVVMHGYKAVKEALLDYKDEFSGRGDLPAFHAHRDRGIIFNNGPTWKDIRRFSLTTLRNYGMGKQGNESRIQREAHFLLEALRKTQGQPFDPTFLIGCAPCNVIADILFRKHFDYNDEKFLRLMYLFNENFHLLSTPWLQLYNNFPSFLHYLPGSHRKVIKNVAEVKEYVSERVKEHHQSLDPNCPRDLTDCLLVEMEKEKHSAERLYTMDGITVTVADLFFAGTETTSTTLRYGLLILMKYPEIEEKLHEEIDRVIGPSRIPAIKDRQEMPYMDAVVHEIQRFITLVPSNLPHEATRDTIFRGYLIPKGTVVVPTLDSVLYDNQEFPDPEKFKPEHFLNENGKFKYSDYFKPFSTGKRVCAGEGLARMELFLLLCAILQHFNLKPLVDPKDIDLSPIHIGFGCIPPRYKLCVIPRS

[3] = target: T2, expressed 2A6 (supersomes) (Homo sapiens, UniProt P11509); experiment: Aldehyde oxidation to carboxylic acid by expressed human P450 2A6 supersomes; settings: 100-120 μM aldehyde, 1.0 mM NADPH, 45 min, 37 °C
T2 sequence (P11509 1-494): T1 sequence (P11509 1-494)

[4] = target: human cytochrome P450_2E1 (Homo sapiens, UniProt P05181); experiment: Inhibition of P450 2E1; settings: for Ki: KI for inhibition of 2E1, competitive model, p-nitrophenol substrate; for fold difference in 2E1 KI, branched versus linear 10-carbon aldehyde: decanal vs citronellal, decenal vs citral
human cytochrome P450_2E1, sequence (P05181 whole entry): as above

[5] = target: 2E1 (Homo sapiens, UniProt P05181); settings: 25 μM; 15 min pre-incubation at 37 °C in the presence of 1 mM NADPH; positive control
2E1, sequence (P05181 whole entry): as above

[6] = KI for inhibition of 2A6, competitive model, coumarin substrate

Structure (SMILES): CCCCCCC=O [Heptyl Saturated, heptanal]
Ki [1, 6]: 15.8 ± 1.1 µM

Structure (SMILES): CCCCCC/C=C/C=O [Nonyl Unsaturated, trans-2-nonenal]
NADPH-dependent oxidation of aldehyde by expressed 2E1 [2]: effective in the oxidation
NADPH-dependent oxidation of aldehyde by expressed 2A6 [3]: no acid products

Structure (SMILES): CCC/C=C/C=O [Hexyl Unsaturated]
Ki [1]: 33 ± 3 µM

Structure (SMILES): CCCCCC=O [Hexyl Saturated]
Ki [1]: 57 ± 7 µM

Structure (SMILES): CCCCCCCCCC=O [Decyl Saturated, decanal]
Ki [4]: 7 µM
fold difference in 2E1 KI, branched versus linear 10-carbon aldehyde [4]: about 8 fold

Structure (SMILES): CCCCCCCCC=O [Nonyl Saturated]
Ki [1]: 55 ± 6 µM

Structure (SMILES): CCCCCCCC=O [Octyl Saturated]
Ki [1]: 25 ± 2 µM

Structure (SMILES): CCCC/C=C/C=O [Heptyl Unsaturated, trans-2-heptenal]
NADPH-dependent oxidation of aldehyde by expressed 2E1 [2]: effective in the oxidation
NADPH-dependent oxidation of aldehyde by expressed 2A6 [3]: no acid products

Structure (SMILES): CCCCCCC/C=C/C=O [Decyl Unsaturated, trans-2-decenal]
NADPH-dependent oxidation of aldehyde by expressed 2E1 [2]: effective in the oxidation
NADPH-dependent oxidation of aldehyde by expressed 2A6 [3]: no acid products

Structure (SMILES): CCCCCCCCCCCC(=O)O [lauric acid, reference compound]
reduction of the activity of 2E1 ([4]; concentration of 50 μM): 50%

Structure (SMILES): C=CCCCCCCCCC=O [11-undecylenic aldehyde]
loss of the activity of 2E1 after pre-incubation [5]: ~ 50%

Further lines, results first:

Ki [1]: 103 ± 22 µM
Structure (SMILES): CCCCCCCC/C=C/C=O [Undecy Unsaturated]

effect on the rate of acid formation from trans-2-octenal [2]: no effect
Structure (SMILES): N[C@@H](CCC(=O)N[C@@H](CS)C(=O)NCC(=O)O)C(=O)O [glutathione, reference compound]

Ki [1]: 126 ± 16 µM
Structure (SMILES): CCCCC=O [Pentyl Saturated]

NADPH-dependent oxidation of aldehyde by expressed 2E1 [2]: effective in the oxidation
NADPH-dependent oxidation of aldehyde by expressed 2A6 [3]: no acid products
Structure (SMILES): CCCCC/C=C/C=O [Octyl Unsaturated, trans-2-octenal]

Ki [4]: 18.8 µM and 15.7 µM
mode of inhibition of 2E1 ([4]; Michaelis-Menten model): reversible competitive inhibition
fold difference in 2E1 KI, branched versus linear 10-carbon aldehyde [4]: 5 fold
Ki [1, 6]: > 100 µM
Structure (SMILES): CC(C)=CCCC(C)=CC=O [citral, 3,7-dimethyl 2,6-octadienal]

Ki [1]: 1270 ± 150 µM
Structure (SMILES): CCC=CC=O [Pentyl Unsaturated]

effect on the rate of acid formation from trans-2-octenal [2]: no effect
Structure (SMILES): O=C1O[C@H]([C@@H](O)CO)C(O)=C1O [ascorbate, reference compound]
